Assay results taken from paper PMC9026082, “Madecassic Acid—A New Scaffold for Highly Cytotoxic Agents” (International Journal of Molecular Sciences, 2022).
Where a name gives a salt, the structure may show the parent alone.

What was measured:
[1] = tested on: NIH 3T3 (non-malignant fibroblasts); test: SRB cytotoxicity assay, NIH 3T3; type: cell-based; conditions: Mus musculus, NIH3T3, 72 h of treatment, cut-off 30 μM
Excerpt: (§1) To assess their cytotoxicity parent, triterpenoic acids 1–3, their acetates 4–6, the amides 7–18, as well as the respective rhodamine B conjugates 19–24 were subjected to SRB assays employing several human tumor cell lines (A375, HT29, MCF-7, A2780, and HeLa) as well as non-malignant fibroblasts (NIH 3T3).
(§2) A detailed description of materials and methods can be found in the Supplementary Materials File. For biological screening, the cell lines were obtained from ATCC: A375 (CRL-1619), HT29 (HTB-38), MCF7 (HTP-22), A2780 (HTP-77), HeLa (CCL-2), and NIH 3T3 (CRL-1573) ^13C NMR spectra (Supplementary Materials) were recorded as APT spectra showing CH and CH3 groups as positive signals and CH2 groups and quaternary carbons as negative signals. […]
(§3) 2. Cytotoxicity assay (SRB assay)
(§4) The cell lines were obtained from Department of oncology (Martin-Luther-University Halle Wittenberg). Cultures were maintained as monolayers in RPMI 1640 medium with L-glutamine (Capricorn Scientific GmbH, Ebsdorfergrund, Germany) supplemented with 10% heat inactivated fetal bovine serum (Sigma -Aldrich Chemie GmbH, Steinheim, Germany) and penicillin/streptomycin (1%, Capricorn Scientific GmbH, Ebsdorfergrund, Germany) at 37 °C in a humidified atmosphere with 5% CO 2.
(§5) The cytotoxicity of the compounds was eva luated using the sulforhodamine -B (Kiton-Red S, ABCR) micro culture colorimetric assay using […] in 96 -well plates with the seeding of the cells on day 0 applying appropriate cell densities to prevent confluence of the cells during the period of the experiment. On day 1, the cells were treated with six di fferent concentrations (1, 3, 7, 12, 20 and 30 μM); thereby, the final concentration of DMSO was always < 0.5%, generally regarded as non-toxic to the cells. On day 4, the supernatant medium was discarded; the cells were fixed with 10 % trichloroacetic acid. After another day at 4 °C, the cells were washed in a strip washer and dyed with the SRB solution (100 μL, 0.4% in 1% acetic acid) for about 20 min to be followed by washing of the plates (four times, 1% acetic acid) and air -drying […]
(§6) overnight. Furthermore, tris base solution (200 μL, 10 mM) was added to each well and absorbance was measured at λ = 570 nm employing a reader (96 wells, Tecan Spectra, Crailsheim, Germany). The EC50 values were averaged from three independent experiments performed each in triplicate calculated from semi logarithmic dose response curves applying a non-linear four-parameter Hills-slope equation (GraphPad Prism5; variables top and bottom were set to 100 and 0, respectively).

[2] = tested on: HT29 (colorectal carcinoma); test: SRB cytotoxicity assay, HT29; type: cell-based, human; conditions: Homo sapiens, HT-29, 72 h of treatment, cut-off 30 μM
Excerpt: as §1, §2, §3, §4, §5, §6

[3] = tested on: several human tumor cell lines (A375, HT29, MCF-7, A2780, and HeLa); test: SRB assays, cell line not given; type: cell-based; conditions: for EC50: Homo sapiens, SRB assays, lowest value of the series, cell line not stated, read-out: EC50 values as low as (analogs of madecassic acid)
Excerpt: as §1, with “3T3). […]” for “3T3).”
as §3, §4, §5, §6

[4] = tested on: A2780 (ovarian carcinoma); test: SRB cytotoxicity assay, A2780; type: cell-based, human; conditions: Homo sapiens, A2780; SRB assay, 72 h of treatment; cut-off 30 μM
Excerpt: as §1, §2, §3, §4, §5, §6

A375 (melanoma) = test: SRB cytotoxicity assay, A375; type: cell-based, human; conditions: 72 h of treatment, cut-off 30 μM
Excerpt: as §1, §2, §3, §4, §5, §6

[5] = tested on: MCF7 (breast adenocarcinoma); test: SRB cytotoxicity assay, MCF7; type: cell-based, human; conditions: Homo sapiens, MCF7, 72 h of treatment, cut-off 30 μM
Excerpt: as §1, §2, §3, §4, §5, §6

Structure (SMILES) | melting point [°C] | EC50 [1] [µM] | EC50 [2] [µM] | EC50 [4] [µM] | EC50 (A375 (melanoma); Homo sapiens, A-375, 72 h) [µM] | EC50 [5] [µM] | further results
CCN(CC)c1ccc2c(-c3ccccc3C(=O)N3CCCN(C(=O)[C@]45CCC(C)(C)C[C@H]4C4=CC[C@@H]6[C@@]7(C)CC[C@H](OC(C)=O)[C@@](C)(COC(C)=O)[C@@H]7CC[C@@]6(C)[C@]4(C)CC5)CC3)c3ccc(=[N+](CC)CC)cc-3oc2c1 (as salt: chloride) [Compound 22] | 243 to 248 | – | – | – | – | – | –
CCN(CC)c1ccc2c(-c3ccccc3C(=O)N3CCN(C(=O)[C@]45CC[C@@H](C)[C@H](C)[C@H]4C4=CC[C@@H]6[C@@]7(C)C[C@@H](OC(C)=O)[C@H](OC(C)=O)[C@@](C)(COC(C)=O)[C@@H]7[C@H](O)C[C@@]6(C)[C@]4(C)CC5)CC3)c3ccc(=[N+](CC)CC)cc-3oc2c1 (as salt: chloride) [Compound 23, N-{6-Diethylamino-9-[2-({4[ (2α,3β,4α,6β)-2,3,23-tris(acetyloxy)-6-hydroxy-28-oxours-12-en-28-yl)-1-piperazinyl]carbonyl]phenyl]-3H-xanthen-3-ylidene)-N-ethylethanaminium Chloride] | 228 to 233 | – | – | – | – | – | –
CCN(CC)c1ccc2c(-c3ccccc3C(=O)N3CCCN(C(=O)[C@]45CC[C@@H](C)[C@H](C)[C@H]4C4=CC[C@@H]6[C@@]7(C)C[C@@H](OC(C)=O)[C@H](OC(C)=O)[C@@](C)(COC(C)=O)[C@@H]7[C@H](O)C[C@@]6(C)[C@]4(C)CC5)CC3)c3ccc(=[N+](CC)CC)cc-3oc2c1 (as salt: chloride) [Compound 24, N-{6-Diethylamino-9-[2-({4[ (2α,3β,4α,6β)-2,3,23-tris(acetyloxy)-6-hydroxy-28-oxours-12-en-28-yl)-1,4-diazepan-1-yl}carbonyl]phenyl]-3H-xanthen-3-ylidene)-N-ethylethanaminium Chloride] | 269 to 273 | – | – | – | – | – | –
C[C@H]1[C@H](C)CC[C@]2(C(=O)O)CC[C@]3(C)C(=CC[C@@H]4[C@@]5(C)C[C@@H](O)[C@H](O)[C@@](C)(CO)[C@@H]5[C@H](O)C[C@]43C)[C@H]12 [Compound 3, Madecassic Acid] | – | > 30 | > 30 | > 30 | > 30 | > 30 | EC50 [3]: ≥ 0.015 µM
CC(=O)OC[C@@]1(C)[C@@H]2[C@H](O)C[C@]3(C)[C@H](CC=C4[C@@H]5[C@@H](C)[C@H](C)CC[C@]5(C(=O)O)CC[C@]43C)[C@@]2(C)C[C@@H](OC(C)=O)[C@@H]1OC(C)=O [Compound 6, (2α,3β,4α,6β) 2,3,23-Tris(acetyloxy)-6-hydroxyurs-12-en-28-oic Acid] | – | 7.6 ± 0.8 | 14.5 ± 1.1 | 8.1 ± 0.7 | 3.5 ± 0.5 | 7.1 ± 0.6 | EC50 [3]: ≥ 0.015 µM
CC(=O)O[C@H]1CC[C@]2(C)[C@H]3CC=C4[C@@H]5CC(C)(C)CC[C@]5(C(=O)NCc5ccccc5)CC[C@@]4(C)[C@]3(C)CC[C@H]2[C@]1(C)C=O [Compound 7, (3β,4α) 3-Acetyloxy-N-(benzyl)-23-oxo-olean-12-en-28-amide] | 119 to 121 | 18.5 ± 4.6 | 10.7 ± 1.8 | 4.4 ± 0.3 | 3.3 ± 0.3 | 8.8 ± 1.6 | –
CC(=O)O[C@H]1CC[C@]2(C)[C@H]3CC=C4[C@@H]5CC(C)(C)CC[C@]5(C(=O)Nc5ccccc5)CC[C@@]4(C)[C@]3(C)CC[C@H]2[C@]1(C)C=O [Compound 8, (3β,4α) 3-Acetyloxy-N-(phenyl)-23-oxo-olean-12-en-28-amide] | 150 to 152 | > 30 | > 30 | 19.9 ± 1.4 | 7.9 ± 3.3 | > 30 | –
CC(=O)O[C@H]1CC[C@]2(C)[C@H]3CC=C4[C@@H]5CC(C)(C)CC[C@]5(C(=O)N5CCNCC5)CC[C@@]4(C)[C@]3(C)CC[C@H]2[C@]1(C)C=O [Compound 9, (3β,4α) 3-Acetyloxy-N-(piperazinyl)-23-oxo-olean-12-en-28-amide] | 150 to 154 | – | – | – | – | – | –
CC(=O)O[C@H]1CC[C@]2(C)[C@H]3CC=C4[C@@H]5CC(C)(C)CC[C@]5(C(=O)N5CCCNCC5)CC[C@@]4(C)[C@]3(C)CC[C@H]2[C@]1(C)C=O [Compound 10, (3β,4α) 3-Acetyloxy-N-(homopiperazinyl)-23-oxo-olean-12-en-28-amide] | 176 to 179 | – | – | – | – | – | –
CC(=O)OC[C@@]1(C)[C@@H]2CC[C@]3(C)[C@H](CC=C4[C@@H]5CC(C)(C)CC[C@]5(C(=O)NCc5ccccc5)CC[C@]43C)[C@@]2(C)CC[C@@H]1OC(C)=O [Compound 11, (3β,4α) 3,23-Bis(acetyloxy)-N-(benzyl)-olean-12-en-28-amide] | 210 to 214 | > 30 | 3.8 ± 0.7 | 1.3 ± 0.3 | 1.1 ± 0.6 | 3.4 ± 0.4 | –
CC(=O)OC[C@@]1(C)[C@@H]2CC[C@]3(C)[C@H](CC=C4[C@@H]5CC(C)(C)CC[C@]5(C(=O)Nc5ccccc5)CC[C@]43C)[C@@]2(C)CC[C@@H]1OC(C)=O [Compound 12, (3β,4α) 3,23-Bis(acetyloxy)-N-(phenyl)-olean-12-en-28-amide] | 210 to 214 | > 30 | 1.9 ± 0.6 | 0.8 ± 0.2 | 0.66 | 1.9 ± 0.1 | EC50 (A375 (melanoma)): 0.6 ± 0.2 µM
CC(=O)OC[C@@]1(C)[C@@H]2CC[C@]3(C)[C@H](CC=C4[C@@H]5CC(C)(C)CC[C@]5(C(=O)N5CCNCC5)CC[C@]43C)[C@@]2(C)CC[C@@H]1OC(C)=O [Compound 13, (3β,4α)3,23-Bis(acetyloxy)-N-(piperazinyl)-olean-12-en-28-amide] | 183 to 187 | – | – | – | – | – | –
CC(=O)OC[C@@]1(C)[C@@H]2CC[C@]3(C)[C@H](CC=C4[C@@H]5CC(C)(C)CC[C@]5(C(=O)N5CCCNCC5)CC[C@]43C)[C@@]2(C)CC[C@@H]1OC(C)=O [Compound 14, (3β,4α)3,23-Bis(acetyloxy)-N-(homopiperazinyl)-olean-12-en-28-amide] | 176 to 180 | – | – | – | – | – | –
CC(=O)OC[C@@]1(C)[C@@H]2[C@H](O)C[C@]3(C)[C@H](CC=C4[C@@H]5[C@@H](C)[C@H](C)CC[C@]5(C(=O)N5CCNCC5)CC[C@]43C)[C@@]2(C)C[C@@H](OC(C)=O)[C@@H]1OC(C)=O [Compound 17, (2α,3β,4α,6β) 2,3,23-Tris(acetyloxy)-N-(piperazinyl)-6-hydroxyurs-12-en-28-amide] | 133 to 138 | – | – | – | – | – | –
CC(=O)OC[C@@]1(C)[C@@H]2[C@H](O)C[C@]3(C)[C@H](CC=C4[C@@H]5[C@@H](C)[C@H](C)CC[C@]5(C(=O)N5CCCNCC5)CC[C@]43C)[C@@]2(C)C[C@@H](OC(C)=O)[C@@H]1OC(C)=O [Compound 18, (2α,3β,4α,6β) 2,3,23-Tris(acetyloxy)-N-(homopiperazinyl)-6-hydroxyurs-12-en-28-amide] | 146.5 to 150.5 | – | – | – | – | – | –
CCN(CC)c1ccc2c(-c3ccccc3C(=O)N3CCCN(C(=O)[C@]45CCC(C)(C)C[C@H]4C4=CC[C@@H]6[C@@]7(C)CC[C@H](OC(C)=O)[C@@](C)(COC(C)=O)[C@@H]7CC[C@@]6(C)[C@]4(C)CC5)CC3)c3ccc(=[N+](CC)CC)cc-3oc2c1 [Compound 22] | – | 0.441 ± 0.12 | 0.083 ± 0.02 | 0.018 ± 0.001 | 0.031 ± 0.007 | 0.086 ± 0.01 | –
COc1cccc2c1C(=O)c1c(O)c3c(c(O)c1C2=O)C[C@@](O)(C(=O)CO)C[C@@H]3O[C@H]1C[C@H](N)[C@H](O)[C@H](C)O1 [DX, Doxorubicin, reference compound] | – | 1.7 ± 0.3 | 0.9 ± 0.2 | 0.02 ± 0.01 | – | 1.1 ± 0.3 | –
CCN(CC)c1ccc2c(-c3ccccc3C(=O)O)c3ccc(=[N+](CC)CC)cc-3oc2c1 [rhodamine B, reference compound] | – | – | – | – | – | – | cytotoxicity ([3]; SRB assay, cut-off 30 μM): not cytotoxic
